# Reference: US20070269664A1, “Gas Barrier Laminated Film and Process for Producing the Same” (Sai Nippon Printing Co., Ltd., priority 2004, published 2007)
# System: cotton aphid (Aphis gossypii)
# Test: Foliar spray test on cotton seedlings infested with cotton aphid
# Type: in vivo
# Conditions: 72 h, read-out: Percent Mortality
# Description: Insecticidal testing was conducted on specific compounds of the present invention. Specifically, the compounds referenced below were evaluated on 7-10 day old cotton seedlings infested with cotton aphid (Aphis gossypii). At least 12 hours prior to the test, leaf cuttings containing about 50 adult aphids were placed on leaves of each of duplicate cotton seedlings for each rate of application of compound of formula (I). Solutions of the compounds of formula (I) were prepared for testing by serial dilution of a standard solution comprised of an appropriate amount of the test material in a water/acetone solvent, which contained a small amount of a surfactant. Rates of application of compounds of formula (I) may range from about 1000 parts per million (ppm), or more, to about 3 ppm, or less, in a rate series of, for example, 1000 ppm, 300 ppm, 100 ppm, 30 ppm, 10 ppm, and 3 ppm. The solutions containing each rate of application of compounds of formula (I) were then sprayed to run-off to both the upper and lower portions of the leaves of the aphid-infested cotton seedlings. Each test of foliar-applied compounds of formula (I) included appropriate standard insecticides of known insecticidal activity and blank treatments to aid in assessing the insecticidal activity of the compounds of formula (I). Upon completion of the spraying with compounds of formula (I), the cotton seedlings were maintained in a growth chamber for a period of 72 hours. After this time, the seedlings were examined for dead insects. Insects were classified as dead if they were off-color or brown and desiccated. Upon completion of the evaluation of the test, the percent mortality of the cotton aphid for each rate of application of compounds of formula (I) was determined by comparison of the total number of dead insects to the total number of insects in the test.
SMILES,mortality at 1000 ppm [%],mortality at 100 ppm [%]
"CCCCOc1ccc(CCOn2c(C)nc(C)c2C)cc1Cl [Compound 9, 1-[2-(3-chloro-4-n-butoxyphenyl)ethoxy]-2,4,5-trimethylimidazole]",100,
"Cc1nc2ccccc2n1OCCc1ccc(C(C)(C)C)c(Cl)c1 [Compound 135, 1-[2-[3-chloro-4-(1,1-dimethylethyl)phenyl]ethoxy]-2-methylbenzimidazole]",86,
"CCCCOc1ccc(CCOn2c(C)nc3ccccc32)cc1Cl [Compound 163, 1-[2-(3-chloro-4-n-butoxyphenyl)ethoxy]-2-methylbenzimidazole]",88,
"CCCCOc1ccc(CCOn2c(C)nc3c2CCCC3)cc1Cl [Compound 244, 1-[2-(3-chloro-4-n-butoxyphenyl)ethoxy]-2-methyl-4,5,6,7-tetrahydrobenzimidazole]",98,
"CCCCOc1ccc(CCOn2c(C)nc3c(F)cccc32)cc1Cl [Compound 246, 1-[2-(3-chloro-4-n-butoxyphenyl)ethoxy]-4-fluoro-2-methylbenzimidazole]",100,
"CCCCOc1ccc(CCOn2c(C)nc3c(C)cccc32)cc1Cl [Compound 266, 1-[2-(3-chloro-4-n-butoxyphenyl)ethoxy]-2,4-dimethylbenzimidazole]",100,
"CCCCOc1ccc(CCOn2nnc3ccccc32)cc1Cl [Compound 285, 1-[2-(3-chloro-4-n-butoxyphenyl)ethoxy]-1H-benzotriazole]",31,
"CCCOC(=O)c1ccc(CCNn2c(C)nc3ccccc32)cc1Cl [Compound 302, propyl 2-chloro-4-[2-(2-methylbenzimidazol-1-ylamino)ethyl]benzoate]",,84
"CCCCOc1ccc(C(C)(C)CNn2c(C)nc3ccccc32)cc1 [Compound 305, 1-[[2-methyl-2-(4-n-butoxyphenyl)propyl]amino]-2-methylbenzimidazole]",96,
"CCCCOc1ccc(CCNn2c(C)nc3ccccc32)cc1Cl [Compound 314, 1-[2-(3-chloro-4-n-butoxyphenyl)ethylamino]-2-methylbenzimidazole]",100,
"CCCCOc1c(C)cc(CCNn2c(C)nc3ccccc32)cc1C [Compound 320, 1-[2-(3,5-dimethyl-4-n-butoxyphenyl)ethylamino]-2-methylbenzimidazole]",,99
"CCCCOc1ccc(CCNn2c(C)nc3c(F)cccc32)cc1Cl [Compound 323, 1-[2-(3-chloro-4-n-butoxyphenyl)ethylamino]-4-fluoro-2-methylbenzimidazole]",,96
"CCCCOc1c(C)cc(CCNn2c(C)nc3cc(F)ccc32)cc1C [Compound 329, 1-[2-(3,5-dimethyl-4-n-butoxyphenyl)ethylamino]-5-fluoro-2-methylbenzimidazole]",,93
"CCCC(CCC)Oc1ccc(CCOn2c(C)nc3c(C)cccc32)cc1 [Compound 413, 1-[2-[4-(1-propylbutoxy)phenyl]ethoxy]-2,4-dimethylbenzimidazole]",,80
"CCCCOc1ccc(CCNn2c(=O)n(C)c3ccccc32)cc1Cl [Compound 417, 1-[2-(3-chloro-4-n-butoxyphenyl)ethylamino]-1,3-dihydro-3-methyl-2H-benzimidazol-2-one]",,3
"CCON=Cc1c(F)cc(CCOn2c(C)nc3ccccc32)cc1F [Compound 1323, 1-[2-(3,5-difluoro-4-ethoxyiminomethylphenyl)ethoxy]-2-methylbenzimidazole]",,97
